Experiments:
[1] = target: T1, human Cot catalytic domain (30-397 amino acids) (Homo sapiens, UniProt P41279); experiment: High Throughput Cot Biochemical Assay (KinEASE TR-FRET); conditions: Cot KinEASE TR-FRET (HTRF) biochemical assay, 400 μM ATP; read-out: IC50 HTRF
T1 construct: Purified recombinant human Cot catalytic domain (30-397 amino acids) was purchased from Cama Biosciences; purchased Cama Biosciences (so in the source)
In short: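 First, purified human Cot (aa 30-397) at 5 nM phosphorylates an XL665-labeled STK3 peptide (1 μM) at 400 μM ATP, pH 7.0, 0.1% DMSO. Then a europium-conjugated phospho-specific antibody binds the product, giving the TR-FRET signal.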

[2] = tested on: TNFα production in LPS-stimulated human monocytes; experiment: Cot Monocyte TNFα Cell Based Assay; conditions: Homo sapiens, Monocyte, TNFα in LPS-stimulated human monocytes; read-out: EC50 TNF
In short: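 5,000 cells/well; cmpd 1 h, 37 °C, 0.5% DMSO final; LPS 50 pg/ml, 4 h, 37 °C; media TNFα by HTRF sandwich (cryptate/XL665), RT overnight; % control vs unstimulated/stimulated wells.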

T1 sequence (P41279 30-397): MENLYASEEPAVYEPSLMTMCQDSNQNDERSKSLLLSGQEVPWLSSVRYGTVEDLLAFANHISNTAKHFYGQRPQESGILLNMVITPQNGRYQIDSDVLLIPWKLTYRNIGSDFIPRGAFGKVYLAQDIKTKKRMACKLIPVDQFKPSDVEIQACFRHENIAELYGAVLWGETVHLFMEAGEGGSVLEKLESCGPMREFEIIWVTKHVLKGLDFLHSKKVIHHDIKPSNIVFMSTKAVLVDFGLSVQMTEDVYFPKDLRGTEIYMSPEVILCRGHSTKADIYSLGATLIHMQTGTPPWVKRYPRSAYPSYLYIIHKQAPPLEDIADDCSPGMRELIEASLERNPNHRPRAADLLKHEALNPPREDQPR

[2H][C@](Nc1cc(Cl)c2ncc(C#N)c(Nc3cncc(F)c3)c2c1)(c1ccc(F)cc1)c1cn(C(C)C)nn1 [Example 339, (S)-8-chloro-6-(((4-fluorophenyl)(1-isopropyl-1H-1,2,3-triazol-4-yl)methyl-d)amino)-4-((5-fluoropyridin-3-yl)amino)quinoline-3-carbonitrile] gave an IC50 [1] of 55 nM and an EC50 [2] of 1170 nM.

[2H][C@](Nc1cc(Cl)c2ncc(C#N)c(N[C@H](CC)c3ccccc3)c2c1)(c1cccc(C#N)c1)c1cn(C2CC2)nn1 [Example 340, 8-chloro-6-(((S)-(3-cyanophenyl)(1-cyclopropyl-1H-1,2,3-triazol-4-yl)methyl-d)amino)-4-(((R)-1-phenylpropyl)amino)quinoline-3-carbonitrile] was tested, and the IC50 [1] was 2 nM and the EC50 [2] was 57 nM.

[2H][C@](Nc1cc(Cl)c2ncc(C#N)c(NCC(C)(C)C)c2c1)(c1cccc(C#N)c1)c1cn(C2CC2)nn1 [Example 341, (S)-8-chloro-6-(((3-cyanophenyl)(1-cyclopropyl-1H-1,2,3-triazol-4-yl)methyl-d)amino)-4-(neopentylamino)quinoline-3-carbonitrile] was tested, and the IC50 [1] was 1 nM and the EC50 [2] was 71 nM.

[2H][C@](Nc1cc(Cl)c2ncc(C#N)c(Nc3cnc(F)c(F)c3)c2c1)(c1ccc(F)cc1)c1cn(Cc2ccccc2)nn1 [Example 342, (S)-6-(((1-benzyl-1H-1,2,3-triazol-4-yl)(4-fluorophenyl)methyl-d)amino)-8-chloro-4-((5,6-difluoropyridin-3-yl)amino)quinoline-3-carbonitrile] showed an IC50 [1] of 64 nM and an EC50 [2] of 1230 nM.

In the case of [2H][C@@](Nc1cc(Cl)c2ncc(C#N)c(NCC(C)(C)C)c2c1)(c1cn(C2CC2)nn1)c1ccccc1Cl [Example 343, (S)-8-chloro-6-(((2-chlorophenyl)(1-cyclopropyl-1H-1,2,3-triazol-4-yl)methyl-d)amino)-4-(neopentylamino) quinoline-3-carbonitrile], the IC50 [1] is reported as 13 nM and the EC50 [2] is reported as 151 nM.

Work on [2H]C(Nc1cc(Cl)c2ncc(C#N)c(NCC(C)(C)C)c2c1)(c1ccc(F)cc1)c1cn(C2CC2)cn1 (centres unmarked) [Example 344, 8-chloro-6-(((1-cyclopropyl-1H-imidazol-4-yl)(4-fluorophenyl)methyl-d)amino)-4-(neopentylamino) quinoline-3-carbonitrile] yielded an IC50 [1] of 89 nM and an EC50 [2] of 2220 nM.

With CC(C)CNc1c(C#N)cnc2c(Cl)cc(N[C@@H](c3ccc(F)cc3)c3cn(C4CC4)nn3)cc12 [Example 345, (S)-8-chloro-6-(((1-cyclopropyl-1H-1,2,3-triazol-4-yl)(4-fluorophenyl)methyl)amino)-4-(isobutylamino)quinoline-3-carbonitrile] the IC50 [1] was 57 nM and the EC50 [2] was 976 nM.

Work on N#Cc1cnc2c(Cl)cc(N[C@@H](c3ccc(F)cc3)c3cn(C4CC4)nn3)cc2c1NCc1cncs1 [Example 346, (S)-8-chloro-6-(((1-cyclopropyl-1H-1,2,3-triazol-4-yl)(4-fluorophenyl)methyl)amino)-4-((thiazol-5-ylmethyl)amino)quinoline-3-carbonitrile] yielded an IC50 [1] of 338 nM and an EC50 [2] of 6100 nM.

N#Cc1cnc2c(Cl)cc(N[C@@H](c3ccc(F)cc3)c3cn(C4CC4)nn3)cc2c1NC(CC(F)(F)F)c1ccccc1 (stereo partly drawn) [Example 347, 8-chloro-6-(((S)-(1-cyclopropyl-1H-1,2,3-triazol-4-yl)(4-fluorophenyl)methyl)amino)-4-((3,3,3-trifluoro-1-phenylpropyl)amino)quinoline-3-carbonitrile] gave an IC50 [1] of 24 nM and an EC50 [2] of 773 nM.

N#Cc1cnc2c(Cl)cc(N[C@@H](c3ccc(F)cc3)c3cn(C4CC4)nn3)cc2c1NCC1CCCOC1 (stereo partly drawn) [Example 348, 8-chloro-6-(((S)-(1-cyclopropyl-1H-1,2,3-triazol-4-yl)(4-fluorophenyl)methyl)amino)-4-(((tetrahydro-2H-pyran-3-yl)methyl)amino)quinoline-3-carbonitrile] gave an IC50 [1] of 44 nM and an EC50 [2] of 1200 nM.

Reference: patent publication US10316017B2, “COT modulators and methods of use thereof” (Gilead Sciences, Inc., priority 2015, dated 2019)
